Test results as given in patent US5672715A, “Herbicidal substituted 3-aryl-pyrazoles” (Monsanto Company, priority 1995, dated 1997).

How the values were obtained:
Type in all cases: in vivo
Barnyardgrass [1] = assay: post-emergence herbicide test; settings: Echinochloa crus-galli, post-emergence, 0.25 lb/A; read-out: % plant inhibition
Method in brief: (§1)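 Plants grown in greenhouse soil pans for two to three weeks were sprayed with compound in about 0.4% v/v emulsifier at 170.3 kPa and 1870 L/Ha, at the stated application rates. Activity was scored as percent inhibition of each species.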

Birdseye Speedwell [2] = assay: post-emergence herbicide test; settings: post-emergence, 0.25 lb/A; read-out: % plant inhibition
Method in brief: as §1

Downy Brome [3] = assay: post-emergence herbicide test; settings: 0.25 lb/A; for inhibition at 280.212 g/ha: Bromus tectorum, post-emergence, read-out: % plant inhibition
Method in brief: as §1

Wheat [4] = assay: post-emergence herbicide test; settings: Triticum aestivum, post-emergence, 0.25 lb/A; read-out: % plant inhibition
Method in brief: as §1

Wild Oats [5] = assay: post-emergence herbicide test; settings: 0.25 lb/A; for inhibition at 280.212 g/ha: Avena fatua, post-emergence, read-out: % plant inhibition
Method in brief: as §1

Corn [6] = assay: post-emergence herbicide test; settings: 0.25 lb/A; for inhibition at 280.212 g/ha: Zea mays, post-emergence, read-out: % plant inhibition
Method in brief: as §1

Cocklebur [7] = assay: post-emergence herbicide test; settings: Xanthium strumarium, post-emergence, 0.25 lb/A; read-out: % plant inhibition
Method in brief: as §1

Blackgrass [8] = assay: post-emergence herbicide test; settings: 0.25 lb/A; for inhibition at 280.212 g/ha: Alopecurus myosuroides, post-emergence, read-out: % plant inhibition
Method in brief: as §1

Rape [9] = assay: post-emergence herbicide test; settings: post-emergence, 0.25 lb/A; read-out: % plant inhibition
Method in brief: as §1

Velvetleaf [10] = assay: post-emergence herbicide test; settings: Abutilon theophrasti, post-emergence, 0.25 lb/A; read-out: % plant inhibition
Method in brief: as §1

Green Foxtail [11] = assay: post-emergence herbicide test; settings: Setaria viridis, post-emergence, 0.25 lb/A; read-out: % plant inhibition
Method in brief: as §1

Soybean [12] = assay: post-emergence herbicide test; settings: 0.25 lb/A; for inhibition at 280.212 g/ha: Glycine max, post-emergence, read-out: % plant inhibition
Method in brief: as §1

Bedstraw Catchweed [13] = assay: post-emergence herbicide test; settings: 0.25 lb/A; for inhibition at 280.212 g/ha: Galium aparine, post-emergence, read-out: % plant inhibition
Method in brief: as §1

Common Chickweed [14] = assay: post-emergence herbicide test; settings: post-emergence, 0.25 lb/A; read-out: % plant inhibition
Method in brief: as §1

Morning Glory [15] = assay: post-emergence herbicide test; settings: 0.25 lb/A; for inhibition at 280.212 g/ha: Ipomoea, post-emergence, read-out: % plant inhibition
Method in brief: as §1

Seedling Johnsongrass [16] = assay: post-emergence herbicide test; settings: Sorghum halepense, post-emergence, 0.25 lb/A; read-out: % plant inhibition
Method in brief: as §1

Giant Foxtail [17] = assay: post-emergence herbicide test; settings: 0.25 lb/A; for inhibition at 280.212 g/ha: Setaria faberi, post-emergence, read-out: % plant inhibition
Method in brief: as §1

Barnyardgrass [18] = assay: pre-emergence herbicide test; settings: Echinochloa crus-galli, pre-emergence, 0.25 lb/A; read-out: % plant inhibition
Method in brief: (§2)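 Pans of compacted topsoil received seeds and then a cover layer treated with test compound from an acetone or water carrier. Plants grew under greenhouse conditions with moisture supplied from below. Observations of % inhibition followed roughly 14 days after treatment.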

Birdseye Speedwell [19] = assay: pre-emergence herbicide test; settings: pre-emergence, 0.25 lb/A; read-out: % plant inhibition
Method in brief: as §2

Downy Brome [20] = assay: pre-emergence herbicide test; settings: Bromus tectorum, pre-emergence, 0.25 lb/A; read-out: % plant inhibition
Method in brief: as §2

Wheat [21] = assay: pre-emergence herbicide test; settings: Triticum aestivum, pre-emergence, 0.25 lb/A; read-out: % plant inhibition
Method in brief: as §2

Wild Oats [22] = assay: pre-emergence herbicide test; settings: 0.25 lb/A; for inhibition at 280.212 g/ha: Avena fatua, pre-emergence, read-out: % plant inhibition
Method in brief: as §2

Corn [23] = assay: pre-emergence herbicide test; settings: 0.25 lb/A; for inhibition at 280.212 g/ha: Zea mays, pre-emergence, read-out: % plant inhibition
Method in brief: as §2

Cocklebur [24] = assay: pre-emergence herbicide test; settings: 0.25 lb/A; for inhibition at 280.212 g/ha: Xanthium strumarium, pre-emergence, read-out: % plant inhibition
Method in brief: as §2

Blackgrass [25] = assay: pre-emergence herbicide test; settings: 0.25 lb/A; for inhibition at 280.212 g/ha: Alopecurus myosuroides, pre-emergence, read-out: % plant inhibition
Method in brief: as §2

Rape [26] = assay: pre-emergence herbicide test; settings: pre-emergence, 0.25 lb/A; read-out: % plant inhibition
Method in brief: as §2

Velvetleaf [27] = assay: pre-emergence herbicide test; settings: Abutilon theophrasti, pre-emergence, 0.25 lb/A; read-out: % plant inhibition
Method in brief: as §2

Green Foxtail [28] = assay: pre-emergence herbicide test; settings: Setaria viridis, pre-emergence; 0.25 lb/A; read-out: % plant inhibition
Method in brief: as §2

Soybean [29] = assay: pre-emergence herbicide test; settings: 0.25 lb/A; for inhibition at 280.212 g/ha: Glycine max, pre-emergence, read-out: % plant inhibition
Method in brief: as §2

Bedstraw Catchweed [30] = assay: pre-emergence herbicide test; settings: 0.25 lb/A; for inhibition at 280.212 g/ha: Galium aparine, pre-emergence, read-out: % plant inhibition
Method in brief: as §2

Common Chickweed [31] = assay: pre-emergence herbicide test; settings: pre-emergence, 0.25 lb/A; read-out: % plant inhibition
Method in brief: as §2

Morning Glory [32] = assay: pre-emergence herbicide test; settings: Ipomoea, pre-emergence, 0.25 lb/A; read-out: % plant inhibition
Method in brief: as §2

Seedling Johnsongrass [33] = assay: pre-emergence herbicide test; settings: Sorghum halepense, pre-emergence, 0.25 lb/A; read-out: % plant inhibition
Method in brief: as §2

Giant Foxtail [34] = assay: pre-emergence herbicide test; settings: Setaria faberi, pre-emergence, 0.25 lb/A; read-out: % plant inhibition
Method in brief: as §2

Structure (SMILES) | inhibition at 280.212 g/ha (Barnyardgrass [1]) [%] | inhibition at 280.212 g/ha (Birdseye Speedwell [2]) [%] | inhibition at 280.212 g/ha (Wheat [4]) [%] | inhibition at 280.212 g/ha (Cocklebur [7]) [%] | inhibition at 280.212 g/ha (Rape [9]) [%] | inhibition at 280.212 g/ha (Velvetleaf [10]) [%] | inhibition at 280.212 g/ha (Green Foxtail [11]) [%] | inhibition at 280.212 g/ha (Common Chickweed [14]) [%] | inhibition at 280.212 g/ha (Seedling Johnsongrass [16]) [%] | inhibition at 280.212 g/ha (Barnyardgrass [18]) [%] | inhibition at 280.212 g/ha (Birdseye Speedwell [19]) [%] | inhibition at 280.212 g/ha (Downy Brome [20]) [%] | inhibition at 280.212 g/ha (Wheat [21]) [%] | inhibition at 280.212 g/ha (Rape [26]) [%] | inhibition at 280.212 g/ha (Velvetleaf [27]) [%] | inhibition at 280.212 g/ha (Green Foxtail [28]) [%] | inhibition at 280.212 g/ha (Common Chickweed [31]) [%] | inhibition at 280.212 g/ha (Morning Glory [32]) [%] | inhibition at 280.212 g/ha (Seedling Johnsongrass [33]) [%] | inhibition at 280.212 g/ha (Giant Foxtail [34]) [%] | also measured
CCCCCCCCCCCCOC(=O)c1cc(-c2nn(C)c(C(F)(F)F)c2C)c(F)cc1Cl [Compound 49] | 0 | 80 | 10 | 50 | 20 | 10 | 60 | 10 | 5 | 75 | 55 | 5 | 0 | 0 | 0 | 60 | 5 | 40 | 45 | 10 | inhibition at 280.212 g/ha (Downy Brome [3]): 20%; inhibition at 280.212 g/ha (Wild Oats [5]): 20%; inhibition at 280.212 g/ha (Corn [6]): 5%; inhibition at 280.212 g/ha (Blackgrass [8]): 20%; inhibition at 280.212 g/ha (Soybean [12]): 5%; inhibition at 280.212 g/ha (Bedstraw Catchweed [13]): 35%; inhibition at 280.212 g/ha (Morning Glory [15]): 5%; inhibition at 280.212 g/ha (Giant Foxtail [17]): 0%; inhibition at 280.212 g/ha (Wild Oats [22]): 5%; inhibition at 280.212 g/ha (Corn [23]): 0%; inhibition at 280.212 g/ha (Cocklebur [24]): 0%; inhibition at 280.212 g/ha (Blackgrass [25]): 5%; inhibition at 280.212 g/ha (Soybean [29]): 0%; inhibition at 280.212 g/ha (Bedstraw Catchweed [30]): 5%
Cc1c(-c2cc(C(=O)OCSC#N)c(Cl)cc2F)nn(C)c1C(F)(F)F [Compound 50] | 5 | 75 | 10 | 60 | 15 | 90 | 25 | 60 | 0 | 25 | 35 | 5 | 0 | 0 | 40 | 10 | 35 | 0 | 0 | 0 | inhibition at 280.212 g/ha (Downy Brome [3]): 10%; inhibition at 280.212 g/ha (Wild Oats [5]): 10%; inhibition at 280.212 g/ha (Corn [6]): 5%; inhibition at 280.212 g/ha (Blackgrass [8]): 5%; inhibition at 280.212 g/ha (Soybean [12]): 7%; inhibition at 280.212 g/ha (Bedstraw Catchweed [13]): 35%; inhibition at 280.212 g/ha (Morning Glory [15]): 35%; inhibition at 280.212 g/ha (Giant Foxtail [17]): 0%; inhibition at 280.212 g/ha (Wild Oats [22]): 0%; inhibition at 280.212 g/ha (Corn [23]): 0%; inhibition at 280.212 g/ha (Cocklebur [24]): 0%; inhibition at 280.212 g/ha (Blackgrass [25]): 5%; inhibition at 280.212 g/ha (Soybean [29]): 0%; inhibition at 280.212 g/ha (Bedstraw Catchweed [30]): 25%
Cc1c(-c2cc(C(=O)OCCC(C)C)c(Cl)cc2F)nn(C)c1C(F)(F)F [Compound 51] | 60 | 98 | 12 | 85 | 20 | 100 | 80 | 75 | 85 | 50 | 90 | 35 | 0 | 5 | 90 | 100 | 70 | 15 | 80 | 90 | % plant inhibition (Downy Brome [3]): 45%; % plant inhibition (Wild Oats [5]): 55%; % plant inhibition (Corn [6]): 7%; % plant inhibition (Blackgrass [8]): 45%; % plant inhibition (Soybean [12]): 65%; % plant inhibition (Bedstraw Catchweed [13]): 40%; % plant inhibition (Morning Glory [15]): 35%; % plant inhibition (Giant Foxtail [17]): 85%; % plant inhibition (Wild Oats [22]): 15%; % plant inhibition (Corn [23]): 8%; % plant inhibition (Cocklebur [24]): 0%; % plant inhibition (Blackgrass [25]): 20%; % plant inhibition (Soybean [29]): 3%; % plant inhibition (Bedstraw Catchweed [30]): 55%
